Experimental data published in patent US20210274789A1, “Antimicrobial Surface Treatment” (Kode Biotech Limited, priority 2018, published 2021).

Tests used:
Type in all cases: cell-based
[1] = test system: Staphylococcus epidermis; test: AgNP augmented antibacterial surface treatment of adhesive bandage swatches, resazurin; parameters: key: Growth: growth (growth); Inhibition: inhibition of growth (inhibition); No growth: prevention of growth (no growth); conditions: 37° C. for 24 hours, duplicate swatches
Description: (§1) Preparation of negatively charged silver nanoparticles Negatively charged nanoparticles of silver (AgNPs) were prepared according to the following method. Quantities of 2 g glucose and 1 g polyvinylpyrrolidone (PVP) were dissolved in water and the resultant volume heated to 90° C. A quantity of 0.5 g of silver nitrate (AgNO3) was dissolved in a separate volume of 1 mL water and the two volumes then rapidly mixed. The mixed volume was maintained at a temperature of 90° C. for a period of time of one hour before cooling to room temperature. The AgNPs were collected by repeated (3 times) centrifugation at 14,000 rpm for a period of time of 60 minutes and resuspension in deionised filtered water (Milli-Q) to remove excess oxidation products, PVP and silver ion (Ag^+). The washed suspension of AgNPs was stored in the dark at 4° C. The AgNPs were characterised by […] dispersive spectroscopy (EDS) and UV-Vis absorbance scanning.
(§2) Swatches (5×5 mm squares) were cut from the fabric portion of commercially available adhesive bandages (BAND-AID™, Quilt-Aid Technology, Johnson & Johnson). A volume of 50 μL of a 0.13 mM dispersion of one of the following constructs was pipetted onto the surface of a swatch: FSL-biotin, FSL-0, FSL-HA17 kDa, FSL-Se and FSL-spm.
(§3) The swatches were air-dried at a temperature of 80° C. prior to washing (3 times) with sterile, filtered, deionised water (Milli-Q).
(§4) Controls were prepared without contacting the swatches with constructs or without washing following contacting the swatches with construct. Individual treated squares (including controls) were placed in the bottom of individual wells of a 96-well plate and inoculated with a volume of 10 μL of a serial dilution of a log phase culture in Mueller Hinton (MH) broth of one of the following bacteria: • Staphylococcus aureus • Staphylococcus epidermis • Escherichia coli • Pseudomonas aeruginosa
(§5) The inoculated swatches were then incubated for 10 minutes before dispensing into each well of the plate a volume of 50 μL of sterile, filtered, deionised water (Milli-Q) and 150 μL of MH broth containing 0.00266% (w/v) resazurin and incubating for a period of time of 24 hours at a temperature of 37° C. The observations of resulting growth (as indicated by a colour change from blue to red) from the estimated bacterial load (2.5×10^4 or 2.5×10^6 colony forming units (cfu)) for each treatment and species of bacterium are recorded in Tables 5 to 8.

[2] = test system: Pseudomonas aeruginosa; test: as above; parameters: key: Growth: growth (growth); Inhibition: inhibition of growth (inhibition); No growth: prevention of growth (no growth); conditions: 37° C. for 24 hours, duplicate swatches
Description: as §1, §2, §3, §4, §5

[3] = test system: Escherichia coli; test: as above; parameters: key: Growth: growth (growth); Inhibition: inhibition of growth (inhibition); No growth: prevention of growth (no growth); conditions: 37° C. for 24 hours, duplicate swatches
Description: as §1, §2, §3, §4, §5

[4] = test system: Staphylococcus aureus; test: as above; parameters: key: Growth: growth (growth); Inhibition: inhibition of growth (inhibition); No growth: prevention of growth (no growth); conditions: 37° C. for 24 hours, duplicate swatches
Description: as §1, §2, §3, §4, §5

[5] = test system: Staphylococcus epidermis; test: Growth on bandage substrate treated with crystal violet alone or with a construct, resazurin colour change; parameters: key: No growth: dark blue (no growth); Reduced growth: purple (reduced growth); Growth: light red (growth); conditions: 0.25 mM construct in combination with crystal violet
Description: (§6) Swatches (1 cm diameter circular disks) were cut from the fabric portion of commercially available adhesive bandages (BAND-AID™ Quilt-Aid Technology, Johnson & Johnson). Volumes of 50 μL were dispended onto the surface of the swatches and the swatches allowed to air dry undisturbed at 80° C. The volumes consisted of dispersions or solutions in deionized water of 0.04% (w/v) crystal violet, 0.25 mM or 0.13 mM of the construct designated FSL-Se or the construct designated FSL-0, or water alone. A further volume of 100 μL of 0.04% (w/v) crystal violet in deionized water was dispensed onto the surface of the dried treated swatches and incubated undisturbed at room temperature for 10 minutes before rinsing as before with sterile deionized water.
(§7) Frozen stock cultures of bacterial isolates (Staphylococcus aureus, Staphylococcus epidermis, Escherichia coli or Pseudomonas aeruginosa) were streaked on Columbia sheep blood agar plates (Fort Richard Laboratories) and the plates incubated at 37° C. for 24 hours when separate colonies had developed. Two to three colonies were then transferred to a volume of 10 mL of 21 g/L Muller-Hinton (MH) broth, vortexed and the turbidity measured at 600 nm. The MH broth was diluted with a further volume so that the turbidity provided an optical density of 0.20 for the suspensions of Staphylococcus aureus and Staphylococcus epidermis and 0.08 for the suspensions of Escherichia coli and Pseudomonas aeruginosa. The diluted suspensions (around 10^8 cfu/mL) were serially diluted.
(§8) Individual treated swatches from each treatment group were placed at the base of separate wells in a 96-well cell culture plate. Volumes of 10 μL of serial dilutions of the suspensions of bacteria were dispensed onto the surface of the swatches (excluding the negative control). The inoculated swatches were then incubated undisturbed at room temperature for 10 minutes before dispensing into each well a volume of 50 μL of sterile deionized water and 150 μL of MH broth containing 0.02% resazurin sodium salt (Sigma-Aldrich).
(§9) The colour change (if any) observed in each well was observed after incubation of the plate for 24 hours at 37° C. Observations are recorded in Tables 1, 2, 3 and 4.

[6] = test system: Staphylococcus aureus; test: as above; parameters: key: No growth: dark blue (no growth); Reduced growth: purple (reduced growth); Growth: light red (growth)
Description: as §6, §7, §8, §9

[7] = test system: Pseudomonas aeruginosa; test: as above; parameters: key: No growth: dark blue (no growth); Reduced growth: purple (reduced growth); Growth: light red (growth); conditions: crystal violet alone
Description: as §6, §7, §8, §9

[8] = test system: Escherichia coli; test: as above; parameters: key: No growth: dark blue (no growth); Reduced growth: purple (reduced growth); Growth: light red (growth); conditions: crystal violet alone
Description: as §6, §7, §8, §9

[9] = unwashed following application of the FSL construct, load 2.11 × 10^4 cfu
[10] = unwashed following application of the FSL construct, load 2.11 × 10^6 cfu
[11] = washed following application of the FSL construct, load 2.11 × 10^4 cfu
[12] = washed following application of the FSL construct, load 2.11 × 10^6 cfu
[13] = unwashed following application of the FSL construct, load 1.75 x 10^4 cfu
[14] = unwashed following application of the FSL construct, load 1.75 × 10^6 cfu
[15] = washed following application of the FSL construct, load 1.75 x 10^4 cfu
[16] = washed following application of the FSL construct, load 1.75 x 10^6 cfu
[17] = unwashed following application of the FSL construct, load 1.99 × 10^4 cfu
[18] = unwashed following application of the FSL construct, load 1.99 × 10^6 cfu
[19] = washed following application of the FSL construct, load 1.99 × 10^4 cfu
[20] = washed following application of the FSL construct, load 1.99 × 10^6 cfu
[21] = unwashed following application of the FSL construct, load 2.53 × 10^4 cfu
[22] = unwashed following application of the FSL construct, load 2.53 × 10^6 cfu
[23] = washed following application of the FSL construct, load 2.53 × 10^4 cfu
[24] = washed following application of the FSL construct, load 2.53 × 10^6 cfu
[25] = challenge 1.5 × 10^4 to 10^5 cfu

Row | Compound | Observations of growth, inhibition of growth or prevention of growth [1, 9] | Observations of growth, inhibition of growth or prevention of growth [1, 10] | Observations of growth, inhibition of growth or prevention of growth [1, 11] | Observations of growth, inhibition of growth or prevention of growth [1, 12] | Observations of growth, inhibition of growth or prevention of growth [2, 13] | Observations of growth, inhibition of growth or prevention of growth [2, 14] | Observations of growth, inhibition of growth or prevention of growth [2, 15] | Observations of growth, inhibition of growth or prevention of growth [2, 16] | Observations of growth, inhibition of growth or prevention of growth [3, 17] | Observations of growth, inhibition of growth or prevention of growth [3, 18] | Observations of growth, inhibition of growth or prevention of growth [3, 19] | Observations of growth, inhibition of growth or prevention of growth [3, 20] | Observations of growth, inhibition of growth or prevention of growth [4, 21] | Observations of growth, inhibition of growth or prevention of growth [4, 22] | Observations of growth, inhibition of growth or prevention of growth [4, 23] | Observations of growth, inhibition of growth or prevention of growth [4, 24] | further results
1 | NCSeCH2CO-CMG(2)-Ad-DOPE [FSL-Se] | Growth | Growth | Growth | Growth | Growth | Growth | Growth | Growth | Growth | Growth | Growth | Growth | Growth | Growth | Growth | Growth | Growth monitored by colour change of resazurin containing MH broth ([5]; challenge 10^3 to 5 × 10^3 cfu): No growth; Growth monitored by colour change of resazurin containing MH broth ([5]; challenge 10^4 to 1.5 × 10^4 cfu): No growth; Growth monitored by colour change of resazurin containing MH broth ([5]; challenge >10^5 cfu): No growth; Growth monitored by colour change of resazurin containing MH broth ([6]; 0.25 mM construct in combination with crystal violet, challenge 1.5 × 10^4 to 10^5 cfu): No growth; Growth monitored by colour change of resazurin containing MH broth ([6]; 0.25 mM construct in combination with crystal violet, challenge 10^3 to 5 × 10^3 cfu): No growth; Growth monitored by colour change of resazurin containing MH broth ([6]; 0.25 mM construct in combination with crystal violet, challenge >10^5 cfu): No growth
2 | CN(C)c1ccc(C(=C2C=CC(=[N+](C)C)C=C2)c2ccc(N(C)C)cc2)cc1.[Cl-] [Crystal violet, N-[4-[bis[4-(dimethylamino)phenyl]methylene]-2,5-cyclohexadien-1-ylidene]-N-methyl-methanaminium chloride] | Inhibition | Growth | Inhibition | Growth | Growth | Growth | Growth | Growth | Growth | Growth | Growth | Growth | Growth | Growth | Growth | Growth | Growth monitored by colour change of resazurin containing MH broth [7, 25]: Growth; Growth monitored by colour change of resazurin containing MH broth ([7]; challenge 5 × 10^3 to 10^4 cfu): Growth; Growth monitored by colour change of resazurin containing MH broth ([7]; challenge 10^3 to 5 × 10^3 cfu): Growth; Growth monitored by colour change of resazurin containing MH broth ([7]; challenge <500 cfu): Growth; Growth monitored by colour change of resazurin containing MH broth ([7]; challenge >10^5 cfu): Growth; Growth monitored by colour change of resazurin containing MH broth [8, 25]: Growth; Growth monitored by colour change of resazurin containing MH broth ([8]; challenge 5 × 10^3 to 10^4 cfu): Growth; Growth monitored by colour change of resazurin containing MH broth ([8]; challenge 500 to 1,000 cfu): Growth; Growth monitored by colour change of resazurin containing MH broth ([8]; challenge >10^5 cfu): Growth; Growth monitored by colour change of resazurin containing MH broth ([6]; crystal violet alone, challenge 500 to 1,000 cfu): No growth
